Source: publication PMC5094908 (Journal of applied toxicology : JAT, 2016)
“Also recorded” adds a separate entry of the source. Where a name gives a salt, the structure may show the parent alone. Read-outs that look alike come from different tables or passages of the source.

Assays:
[1] = test system: LUHMES and dLUHMES cells
[2] = test system: NSC and dNSC cells; conditions: 24 h exposure, [ATP], 0.78 to 100 µM
[3] = test system: HEK293, SH-SY5Y, SK-N-SH, or N2a; conditions: cited from earlier work
[4] = test system: SH-SY5Y and dSH-SY5Y cells; assay: qPCR of apoptosis-pathway genes after 6 h toxicant treatment; assay type: cell-based, human; conditions: for BAG3 expression: both SH-SY5Y and dSH-SY5Y
[5] = test system: SH-SY5Y and dSH-SY5Y cells
[6] = test system: LUHMES and dLUHMES cells; conditions: LUHMES, 1.56 µM RSR, 6 h; samples lost
[7] = test system: Caspase 3/7 activity in SH-SY5Y and dSH-SY5Y cells; assay: Caspase-Glo 3/7 luminescence assay, 24 h; assay type: cell-based
[8] = test system: SH-SY5Y, LUHMES, NSC, dSH-SY5Y, dLUHMES, dNSC
[9] = test system: Caspase 3/7 activity in LUHMES and dLUHMES cells; assay: Caspase-Glo 3/7 luminescence assay, 24 h; assay type: cell-based, human
[10] = SH-SY5Y and dSH-SY5Y (either cell type), MAP 12.5 µM, DTCM 10 µM, MALG 1.56 µM, MHG 1.56 µM, RSR 10 µM
[11] = SH-SY5Y and dSH-SY5Y (either cell type), MAP 12.5 µM, MALG 1.56 µM, MHG 1.56 µM, RSR 10 µM
[12] = MAP 12.5 µM, DTCM 10 µM, MALG 1.56 µM, MHG 1.56 µM, RSR 10 µM
[13] = 24 h exposure, [ATP], 0.78 to 100 µM
[14] = 24 h exposure, 0.78 to 100 µM, vs SH-SY5Y/dSH-SY5Y and NSC/dNSC
[15] = dLUHMES, 24 h, threshold […] above control

C[C@H]1O[C@@H](O[C@H]2[C@@H](O)C[C@H](O[C@H]3[C@@H](O)C[C@H](O[C@H]4CC[C@@]5(C)[C@H](CC[C@@H]6[C@@H]5C[C@@H](O)[C@]5(C)[C@@H](C7=CC(=O)OC7)CC[C@]65O)C4)O[C@@H]3C)O[C@@H]2C)C[C@H](O)[C@@H]1O [DGX, Digoxin]
cytotoxic sensitivity ([ATP] IC50) of LUHMES and/or dLUHMES relative to the other cell lines [1]: more sensitive than the other cell lines

CCCCCCCCn1sccc1=O [OTZ, 2-octyl-4-isothiazolin-3-one]
relative cytotoxic sensitivity of NSC versus dNSC [2]: NSC more sensitive than dNSC
In vitro neural selectivity: neural-derived cell lines 10-fold more sensitive (10-fold lower IC50) than the median of the other 9 cell lines [3]: SH-SY5Y ([Huang et al., 2008], [Xia et al., 2008])
cytotoxic sensitivity ([ATP] IC50) of LUHMES and/or dLUHMES relative to the other cell lines [1]: more sensitive than the other cell lines

[CH3][Hg+] [MHG, Methyl mercury (II)]
BIRC5 gene expression [4, 10]: down-regulation
BIRC3 gene expression [4, 11]: down-regulation
BAG3 expression [4, 12]: increased expression

O=C1C2CC=CCC2C(=O)N1SC(Cl)(Cl)Cl (centres unmarked) [CAP, Captan]
In vitro neural selectivity: neural-derived cell lines 10-fold more sensitive (10-fold lower IC50) than the median of the other 9 cell lines [3]: SH-SY5Y ([Huang et al., 2008], [Xia et al., 2008])
cytotoxic sensitivity of dSH-SY5Y cells relative to SH-SY5Y cells [5, 13]: slightly more sensitive
cytotoxic sensitivity ([ATP] IC50) of LUHMES and/or dLUHMES relative to the other cell lines [1, 14]: more sensitive than the other cell lines
relative cytotoxic sensitivity of LUHMES versus dLUHMES cells [1, 13]: dLUHMES cells were markedly more sensitive than LUHMES cells

Cc1c(O)cccc1C(=O)N[C@@H](CSc1ccccc1)[C@H](O)CN1C[C@H]2CCCC[C@H]2C[C@H]1C(=O)NC(C)(C)C [NLF, Nelfinavir]
In vitro neural selectivity: neural-derived cell lines 10-fold more sensitive (10-fold lower IC50) than the median of the other 9 cell lines [3]: SH-SY5Y ([Huang et al., 2008], [Xia et al., 2008])
cytotoxic sensitivity ([ATP] IC50) of LUHMES and/or dLUHMES relative to the other cell lines [1]: more sensitive than the other cell lines

c1cc(OCC2CO2)cc(OCC2CO2)c1 (centres unmarked) [RSR, Resorcinol diglycidyl ether]
relative cytotoxic sensitivity of NSC versus dNSC [2]: the converse was true
In vitro neural selectivity: neural-derived cell lines 10-fold more sensitive (10-fold lower IC50) than the median of the other 9 cell lines [3]: SH-SY5Y ([Huang et al., 2008], [Xia et al., 2008])
BIRC5 gene expression [4, 10]: did not respond detectably
BIRC3 gene expression [4, 11]: did not respond detectably
BAG3 expression [4, 12]: weakly
cytotoxicity seen in samples treated for qPCR [6]: excessive cytotoxicity
cytotoxic sensitivity ([ATP] IC50) of LUHMES and/or dLUHMES relative to the other cell lines [1, 14]: more sensitive than the other cell lines
peak Caspase 3/7 activities, ranking among compounds [7]: highest activities

CN(C)c1ccc(C(=C2C=CC(=[N+](C)C)C=C2)c2ccccc2)cc1.CN(C)c1ccc(C(=C2C=CC(=[N+](C)C)C=C2)c2ccccc2)cc1.O=C(O)C(=O)O.O=C([O-])C(=O)O.O=C([O-])C(=O)O [MALG, Malachite green oxalate]
cytotoxic sensitivity of LUHMES, dLUHMES, NSC and dNSC compared with each other [8]: comparable sensitivity
BIRC5 gene expression [4, 10]: down-regulation
BIRC3 gene expression [4, 11]: down-regulation
BAG3 expression [4, 12]: increased expression
peak Caspase 3/7 activities, ranking among compounds [7]: highest activities

N#CSCSC#N [DTCM, Dithiocyanatomethan]
In vitro neural selectivity: neural-derived cell lines 10-fold more sensitive (10-fold lower IC50) than the median of the other 9 cell lines [3]: SH-SY5Y ([Huang et al., 2008], [Xia et al., 2008])
increase of Caspase 3/7 activity in dLUHMES [9, 15]: but not dLUHMES
BIRC5 gene expression [4, 10]: down-regulation
BIRC3 gene expression ([4]; SH-SY5Y, DTCM 10 µM): down-regulation
FAS mRNA ([4]; SHSY5Y, DTCM 10 µM): down-regulated
BAG3 expression [4, 12]: increased expression
BIRC3 gene expression ([4]; dSH-SY5Y, DTCM 10 µM): did not respond detectably
FASL mRNA ([4]; dSH-SY5Y, DTCM 10 µM): unchanged
cytotoxic sensitivity of dSH-SY5Y cells relative to SH-SY5Y cells [5, 13]: slightly more sensitive
cytotoxic sensitivity ([ATP] IC50) of LUHMES and/or dLUHMES relative to the other cell lines [1, 14]: more sensitive than the other cell lines
relative cytotoxic sensitivity of LUHMES versus dLUHMES cells [1, 13]: dLUHMES cells were markedly more sensitive than LUHMES cells

O=C(O)CCCc1ccc(N(CCCl)CCCl)cc1 [CLM, Chlorambucil]
In vitro neural selectivity: neural-derived cell lines 10-fold more sensitive (10-fold lower IC50) than the median of the other 9 cell lines [3]: selective toxicity to SH-SY5Y cells; also recorded: SH-SY5Y, ([Huang et al., 2008], [Xia et al., 2008])
increase of Caspase 3/7 activity in dLUHMES [9, 15]: but not dLUHMES
relative cytotoxic sensitivity of LUHMES versus dLUHMES cells [1]: LUHMES cells were more sensitive than dLUHMES cells
cytotoxic sensitivity ([ATP] IC50) of LUHMES and/or dLUHMES relative to the other cell lines [1, 14]: more sensitive than the other cell lines
peak Caspase 3/7 activities, ranking among compounds [7]: highest activities

[CH3][Sn]([CH3])([CH3])[Cl] [TMT, Trimethyltin chloride]
cytotoxic sensitivity ([ATP] IC50) of LUHMES and/or dLUHMES relative to the other cell lines [1, 14]: more sensitive than the other cell lines
relative cytotoxic sensitivity of LUHMES versus dLUHMES cells [1, 13]: dLUHMES cells were markedly more sensitive than LUHMES cells

Tunicamycin [TUNC]
cytotoxic sensitivity ([ATP] IC50) of LUHMES and/or dLUHMES relative to the other cell lines [1, 14]: more sensitive than the other cell lines

O=c1c(-c2ccc(O)cc2)coc2cc(O)cc(O)c12 [GEN, Genistein]
increase of Caspase 3/7 activity in dLUHMES [9, 15]: but not dLUHMES

C=C(C)[C@H]1Cc2c(ccc3c2O[C@@H]2COc4cc(OC)c(OC)cc4[C@@H]2C3=O)O1 [ROTE, Rotenone]
cytotoxic sensitivity of dSH-SY5Y cells relative to SH-SY5Y cells [5]: more sensitive
relative cytotoxic sensitivity of LUHMES versus dLUHMES cells [1]: LUHMES cells were more sensitive than dLUHMES cells
cytotoxic sensitivity ([ATP] IC50) of LUHMES and/or dLUHMES relative to the other cell lines [1, 14]: more sensitive than the other cell lines

Cc1ccc2c(c1[N+](=O)[O-])C(=O)c1ccccc1C2=O [MNA, 2-Methyl-1-nitroanthraquinone]
In vitro neural selectivity: neural-derived cell lines 10-fold more sensitive (10-fold lower IC50) than the median of the other 9 cell lines ([3]; qHTS cytotoxicity, ref Huang et al., 2008, Xia et al., 2008): HEK293 ([Huang et al., 2008], [Xia et al., 2008])
increase of Caspase 3/7 activity in dLUHMES [9, 15]: but not dLUHMES
cytotoxic sensitivity ([ATP] IC50) of LUHMES and/or dLUHMES relative to the other cell lines [1]: more sensitive than the other cell lines

Nc1ccn([C@@H]2O[C@H](CO)[C@@H](O)[C@@H]2O)c(=O)n1 [ARAC, Cytosine arabinoside]
increase of Caspase 3/7 activity in dLUHMES [9, 15]: but not dLUHMES
relative cytotoxic sensitivity of LUHMES versus dLUHMES cells [1]: LUHMES cells were more sensitive than dLUHMES cells
cytotoxic sensitivity ([ATP] IC50) of LUHMES and/or dLUHMES relative to the other cell lines [1, 14]: more sensitive than the other cell lines
peak Caspase 3/7 activities, ranking among compounds [7]: highest activities

COc1cccc2c1C(=O)c1c(O)c3c(c(O)c1C2=O)C[C@@](O)(C(=O)CO)C[C@@H]3O[C@H]1C[C@H](N)[C@H](O)[C@H](C)O1 [DOX, Doxorubicin]
In vitro neural selectivity: neural-derived cell lines 10-fold more sensitive (10-fold lower IC50) than the median of the other 9 cell lines [3]: HEK293, SH-SY5Y, SK-N- SH ([Huang et al., 2008], [Xia et al., 2008])
peak Caspase 3/7 activities, ranking among compounds [7]: highest activities

CC[C@]1(O)C[C@H]2CN(CCc3c([nH]c4ccccc34)[C@@](C(=O)OC)(c3cc4c(cc3OC)N(C=O)[C@H]3[C@@](O)(C(=O)OC)[C@H](OC(C)=O)[C@]5(CC)C=CCN6CC[C@]43[C@@H]65)C2)C1 [VIN, Vincristine sulfate]
cytotoxic sensitivity ([ATP] IC50) of LUHMES and/or dLUHMES relative to the other cell lines [1]: more sensitive than the other cell lines

COc1cc2c(c(OC)c1OC)-c1ccc(OC)c(=O)cc1[C@@H](NC(C)=O)CC2 [CLCH, Colchicine]
In vitro neural selectivity: neural-derived cell lines 10-fold more sensitive (10-fold lower IC50) than the median of the other 9 cell lines [3]: HEK293, SH-SY5Y, SK-N- SH, N2a ([Huang et al., 2008], [Xia et al., 2008])
cytotoxic sensitivity ([ATP] IC50) of LUHMES and/or dLUHMES relative to the other cell lines [1]: more sensitive than the other cell lines

Sodium dichromate [CR2]
In vitro neural selectivity: neural-derived cell lines 10-fold more sensitive (10-fold lower IC50) than the median of the other 9 cell lines [3]: SH-SY5Y ([Huang et al., 2008], [Xia et al., 2008])

Ziram
In vitro neural selectivity: neural-derived cell lines 10-fold more sensitive (10-fold lower IC50) than the median of the other 9 cell lines [3]: SH-SY5Y ([Huang et al., 2008], [Xia et al., 2008])

Aflatoxin B1
increase of Caspase 3/7 activity in dLUHMES [9]: but not dLUHMES
cytotoxic sensitivity ([ATP] IC50) of LUHMES and/or dLUHMES relative to the other cell lines [1]: more sensitive than the other cell lines
relative cytotoxic sensitivity of LUHMES versus dLUHMES cells [1]: LUHMES cells were more sensitive than dLUHMES cells

COc1cccc2c1C(=O)c1c(O)c3c(c(O)c1C2=O)C[C@@](O)(C(C)=O)C[C@@H]3O[C@H]1C[C@H](N)[C@H](O)[C@H](C)O1 [DAUN, Daunorubicin]
In vitro neural selectivity: neural-derived cell lines 10-fold more sensitive (10-fold lower IC50) than the median of the other 9 cell lines [3]: HEK293, SH-SY5Y, SK-N- SH, N2a ([Huang et al., 2008], [Xia et al., 2008])
peak Caspase 3/7 activities, ranking among compounds [7]: highest activities
